Experimental data: patent publication US20050100617A1, “Method for improving age-related physiological deficits and increasing longevity” (priority 2001, published 2005)

Test system: skeletal muscle (gastrocnemius) gene expression
Assay: Gene expression profiling in skeletal muscle, short-term (3 months) dietary intervention in young mice
Assay type: in vivo
Details: 3 months treatment
Protocol: For each target gene, the fold change is calculated as follows: [Expression obtained with the experimental diet] divided by [Expression obtained with control diet]. Consequently, fold changes of all target genes are equal to 1 (one) for the control diet. Thus, fold changes refers to the modulation of expression of a given target gene in muscle tissue after 3 months feeding with an experimental diet, for example, diets B, C, D, or F, when compared to the expression of the same gene in muscle tissue of the control group (diet A).
Dietary intervention was of 3 months, all animal groups were fed Ad libitum except for the group of caloric restricted mice which as fed 67% of the daily food consumed by the control Ad libitum group. Animal weight was measured once a week.
The effect of short and long nutritional intervention was investigated. The short-term dietary interventions with diet A, B, C, D and F was initiated in young mice and lasted for three months. In a similar way, long-term interventions were initiated at three months of age for the following diets A and B and D and lasted twenty-one months.
Male mice C57/B16 were obtained from Iffa credo (France) at 9 weeks of age. Upon arrival mice were housed by groups of 6 animals. After 3 weeks adaptation, mice (12 weeks old) were randomized 6 groups (A to F) of 12 mice each and housed individually. Dietary intervention was of 3 months; mice had free access to water and were submitted to 12 hours light and dark cycles.
The control diet (diet A) composed of 18% proteins (soy and whey), 11% fat (soybean oil), 59% carbohydrates (starch+sucrose) and 10% cellulose was supplemented with either a cocktail of antioxidants comprising vitamin C, vitamin E, grape seed extract and cysteine (diet C) and/or L-camitine (diet D and F respectively). For caloric restriction (diet B) fat, starch and sucrose were reduced to provide 67% of the daily calorie consumption of the Ad-lib control group while providing 100% for proteins, minerals and vitamins. These diets are as follows: • Diet A—Control: 18% proteins (soy and whey), 11% fat, 59% carbohydrates, 5% cellulose. • Diet B—Caloric restriction: 18% proteins (soy and whey), 7.7% fat, 32.5% carbohydrates, 5% cellulose • Diet C—Cocktail of antioxidants : Diet A+0.19% vit C, 0.03% vit E, 0.075% grape seed extract, 0.4% cysteine. • Diet D: Carnitine and Antioxidants: Diet A+0.3% L- camitine+cocktail of antioxidants of diet C. • Diet F: Carnitine: Diet A+0.3% L- carnitine
Mice were decapitated and dissected rapidly. Skeletal muscles (gastrocnemius) were immersed in RNAlatter (Ambion) and frozen at −80° C. until use. For RNA extraction, muscles were homogenized with ceramic beads (FastPrep, Q-Biogene) and the RNA extracted with Totally RNA kit (Ambion). The quality of the RNA was checked by Agilent technology. RNA pools from four mice each were created and hybridized to Affymetrix Murine U74Av2 high-density oligonucleotide microarrays.
The Global Error Assessment (GEA) methodology was used to select differentially expressed genes in the present invention. See Bioinformatics, Vol. 20, No. 16 (Oxford University Press 2004) pp. 2726-2737, the content of which is hereby incorporated by reference thereto. The goal was to select genes with statistically significant differential expression between treatments and ages of the mice of the study.

C[N+](C)(C)C[C@H](O)CC(=O)[O-] [Carnitine, L-carnitine]
2.8 fold: Fold Changes Mapk9 (mitogen activated protein kinase 9)
0.2 fold: Fold Changes 5730497N03Rik (RIKEN cDNA 5730497N03 gene) | Fold Changes Klrb1c (killer cell lectin-like receptor subfamily B member 1C) | Fold Changes Slc2a5 (solute carrier family 2 (facilitated glucose transporter), member 5) | Fold Changes Zfp101 (zinc finger protein 101) | Fold Changes Itgav (integrin alpha V) (Table 1, first Itgav line)
0.7 fold: Fold Changes 2310016A09Rik (RIKEN cDNA 2310016A09 gene) | Fold Changes Atp13a (ATPase type 13A) | Fold Changes Capza2 (capping protein (actin filament) muscle Z-line, alpha 2) | Fold Changes Cbfb (core binding factor beta) | Fold Changes Copb2 (coatomer protein complex, subunit beta 2 (beta prime)) | Fold Changes Ddb1 (damage specific DNA binding protein 1) | Fold Changes Eif2s3x (eukaryotic translation initiation factor 2, subunit 3, structural gene X-linked) | Fold Changes Eps15 (epidermal growth factor receptor pathway substrate 15) | Fold Changes Gpr12 (G-protein coupled receptor 12) | Fold Changes Itgb1 (integrin beta 1 (fibronectin receptor beta)) | Fold Changes Krtap3-1 (keratin associated protein 3-1) | Fold Changes Pigr (polymeric immunoglobulin receptor) | Fold Changes Psma3 (proteasome (prosome, macropain) subunit, alpha type 3) | Fold Changes Psmd8 (proteasome (prosome, macropain) 26S subunit, non-ATPase, 8) | Fold Changes Rbm17 (RNA binding motif protein 17) | Fold Changes Rpl30 (ribosomal protein L30) | Fold Changes Rpp14 (ribonuclease P 14 kDa subunit (human)) | Fold Changes Scamp2 (secretory carrier membrane protein 2) | Fold Changes Tcfl1 (transcription factor-like 1) | Fold Changes Transcribed sequences | Fold Changes Ubb (ubiquitin B) | Fold Changes Ube2e1 (ubiquitin-conjugating enzyme E2E 1, UBC4/5 homolog (yeast)) | Fold Changes Upf3b (UPF3 regulator of nonsense transcripts homolog B (yeast)) | Fold Changes Xpo7 (exportin 7) | Fold Changes Itgav (integrin alpha V) (Table 1, second Itgav line)
0.4 fold: Fold Changes Cdh10 (cadherin 10) | Fold Changes Itpr1 (inositol 1,4,5-triphosphate receptor 1) | Fold Changes Junb (Jun-B oncogene) | Fold Changes Mapre3 (microtubule-associated protein, RP/EB family, member 3) | Fold Changes Pcdha12 (protocadherin alpha 12) | Fold Changes Tnpo1 (transportin 1) | Fold Changes Vps54 (vacuolar protein sorting 54 (yeast)) | Fold Changes Rpl10a (ribosomal protein L10A) (Table 1 (down regulation))
0.1 fold: Fold Changes Fcgr2b (Fc receptor, IgG, low affinity Ilb) | Fold Changes Myo5a (myosin Va) | Fold Changes Neurod6 (neurogenic differentiation 6)
0.8 fold: Fold Changes 2010012F05Rik (RIKEN cDNA 2010012F05 gene) | Fold Changes 2210419D22Rik (RIKEN cDNA 2210419D22 gene) | Fold Changes 5730454B08Rik (RIKEN cDNA 5730454B08 gene) | Fold Changes Cd164 (CD164 antigen) | Fold Changes Deb1 (differentially expressed in B16F10 1) | Fold Changes Hdac2 (histone deacetylase 2) | Fold Changes Sara2 (SAR1a gene homolog 2 (S. cerevisiae)) | Fold Changes Sgk (serum/glucocorticoid regulated kinase) | Fold Changes Slc38a2 (solute carrier family 38, member 2) | Fold Changes Sorbs1 (sorbin and SH3 domain containing 1) | Fold Changes Transcribed sequence with strong similarity to protein sp: P49840 (H. sapiens)
1.2 fold: Fold Changes 2310073E15Rik (RIKEN cDNA 2310073E15 gene) | Fold Changes 4732477C12Rik (RIKEN cDNA 4732477C12 gene) | Fold Changes D8Ertd69e (DNA segment, Chr 8, ERATO Doi 69, expressed) | Fold Changes Hbb-b1 (hemoglobin, beta adult major chain) | Fold Changes Ndufb3 (NADH dehydrogenase (ubiquinone) 1 beta subcomplex 3) | Fold Changes Rpl10a (ribosomal protein L10A) (Table 2 (up regulation))
6.5 fold: Fold Changes Esr1 (estrogen receptor 1 (alpha))
1.5 fold: Fold Changes G0s2 (G0/G1 switch gene 2) | Fold Changes Hist2h3c2 (histone 2, H3c2) | Fold Changes Snx2 (sorting nexin 2) | Fold Changes St13 (suppression of tumorigenicity 13)
0.9 fold: Fold Changes Pdk4 (pyruvate dehydrogenase kinase, isoenzyme 4) | Fold Changes Rab2 (RAB2, member RAS oncogene family) | Fold Changes Rtn4 (reticulon 4) | Fold Changes Tsta3 (tissue specific transplantation antigen P35B)
0.6 fold: Fold Changes 0610013E23Rik (RIKEN cDNA 0610013E23 gene) | Fold Changes 6330407G11Rik (RIKEN cDNA 6330407G11 gene) | Fold Changes Anp32e (acidic (leucine-rich) nuclear phosphoprotein 32 family, member E) | Fold Changes Arid1a (AT rich interactive domain 1A (Swi1 like)) | Fold Changes Arpc2 (actin related protein 2/3 complex, subunit 2) | Fold Changes C4 (complement component 4 (within H-2S)) | Fold Changes Capzb (capping protein (actin filament) muscle Z-line, beta) | Fold Changes Eif4ebp1 (eukaryotic translation initiation factor 4E binding protein 1) | Fold Changes Eif4ebp2 (eukaryotic translation initiation factor 4E binding protein 2) | Fold Changes Enpep (glutamyl aminopeptidase) | Fold Changes Gas5 (growth arrest specific 5) | Fold Changes Gstm5 (glutathione S-transferase, mu 5) | Fold Changes Hoxd8 (homeo box D8) | Fold Changes Igfbp5 (insulin-like growth factor binding protein 5) | Fold Changes Lbp (lipopolysaccharide binding protein) | Fold Changes Matr3 (matrin 3) | Fold Changes Mnt (max binding protein) | Fold Changes Npc1 (Niemann Pick type C1) | Fold Changes Nras (neuroblastoma ras oncogene) | Fold Changes Orc4l (origin recognition complex, subunit 4-like (S. cerevisiae)) | Fold Changes Pdcd4 (programmed cell death 4) | Fold Changes Psmd11 (proteasome (prosome, macropain) 26S subunit, non-ATPase, 11) | Fold Changes Rwdd1 (RWD domain containing 1) | Fold Changes Strap (serine/threonine kinase receptor associated protein) | Fold Changes Zfp289 (zinc finger protein 289)
0.5 fold: Fold Changes 2610034N03Rik (RIKEN cDNA 2610034N03 gene) | Fold Changes 2700059D21Rik (RIKEN cDNA 2700059D21 gene) | Fold Changes Apobec2 (apolipoprotein B editing complex 2) | Fold Changes Ccl9 (chemokine (C-C motif) ligand 9) | Fold Changes Cebpd (CCAAT/enhancer binding protein (C/EBP), delta) | Fold Changes Galnt1 (UDP-N-acetyl-alpha-D-galactosamine:polypeptide N-acetylgalactosaminyltra) | Fold Changes Hmgcl (3-hydroxy-3-methylglutaryl-Coenzyme A lyase) | Fold Changes Macf1 (microtubule-actin crosslinking factor 1) | Fold Changes Mapt (microtubule-associated protein tau) | Fold Changes Mt1 (metallothionein 1) | Fold Changes Muc1 (mucin 1, transmembrane) | Fold Changes Pkm2 (pyruvate kinase, muscle) | Fold Changes Prp19 (PRP19/PSO4 homolog (S. cerevisiae)) | Fold Changes Psmc1 (protease (prosome, macropain) 26S subunit, ATPase 1) | Fold Changes Rrad (Ras-related associated with diabetes) | Fold Changes Skp1a (S-phase kinase-associated protein 1A) | Fold Changes Tm4sf3 (transmembrane 4 superfamily member 3) | Fold Changes Top1 (topoisomerase (DNA) I)
2 fold: Fold Changes Siat6 (sialyltransferase 6 (N-acetyllacosaminide alpha 2,3-sialyltransferase))
1.4 fold: Fold Changes 3110038L01Rik (RIKEN cDNA 3110038L01 gene) | Fold Changes Actb (actin, beta, cytoplasmic) | Fold Changes Akt1s1 (AKT1 substrate 1 (proline-rich)) | Fold Changes Lpl (lipoprotein lipase) | Fold Changes Rhoa (ras homolog gene family, member A) | Fold Changes Spr (sepiapterin reductase) | Fold Changes Tnxb (tenascin XB)
2.5 fold: Fold Changes Tgm3 (transglutaminase 3, E polypeptide)
1.7 fold: Fold Changes Aldh2 (aldehyde dehydrogenase 2, mitochondrial) | Fold Changes Nnt (nicotinamide nucleotide transhydrogenase) | Fold Changes Utrn (utrophin)
4.1 fold: Fold Changes Atp1b2 (ATPase, Na+/K+ transporting, beta 2 polypeptide)
2.3 fold: Fold Changes Car4 (carbonic anhydrase 4) | Fold Changes Sri (sorcin)
4.7 fold: Fold Changes Xcl1 (chemokine (C motif) ligand 1)
4.8 fold: Fold Changes Lypla1 (lysophospholipase 1)
1.1 fold: Fold Changes Slpi (secretory leukocyte protease inhibitor)
5.9 fold: Fold Changes Birc4 (baculoviral IAP repeat-containing 4) | Fold Changes Klf3 (Kruppel-like factor 3 (basic))
5.4 fold: Fold Changes Cd97 (CD97 antigen)
1.8 fold: Fold Changes Dyrk1a (dual-specificity tyrosine-(Y)-phosphorylation regulated kinase 1a) | Fold Changes Ksr (kinase suppressor of ras)
1.6 fold: Fold Changes Ldh2 (lactate dehydrogenase 2, B chain) | Fold Changes Pcnt2 (pericentrin 2) | Fold Changes Tubg2 (tubulin, gamma 2)
4.6 fold: Fold Changes Camk2a (calcium/calmodulin-dependent protein kinase II alpha) | Fold Changes Itgav (integrin alpha V) (Table 2 (up regulation))
1.9 fold: Fold Changes Cpd (carboxypeptidase D) | Fold Changes Retn (resistin) | Fold Changes Wars (tryptophanyl-tRNA synthetase)
17.3 fold: Fold Changes Psap (prosaposin)
5.2 fold: Fold Changes D19Ertd678e (DNA segment, Chr 19, ERATO Doi 678, expressed) | Fold Changes Erv4 (endogenous retroviral sequence 4 (with leucine t-RNA primer))
4.3 fold: Fold Changes Stam2 (signal transducing adaptor molecule (SH3 domain and ITAM motif) 2)
0.3 fold: Fold Changes Gpx7 (glutathione peroxidase 7) | Fold Changes Mt2 (metallothionein 2) | Fold Changes Plk1 (polo-like kinase 1 (Drosophila))
2.9 fold: Fold Changes E030006K04Rik (RIKEN cDNA E030006K04 gene)
1.3 fold: Fold Changes 6720463E02Rik (RIKEN cDNA 6720463E02 gene)
4.2 fold: Fold Changes Htr1a (5-hydroxytryptamine (serotonin) receptor 1A)
